{"source": "patent US11278561B2", "about": "“Combination treatment for hematological cancers” (Geron Corporation, priority 2016, dated 2022)", "assay_type_in_all_cases": "cell-based", "key": {"MOLM-13 cells [1]": {"system": "MOLM-13 cells", "assay": "Annexin V / Propidium Iodide flow cytometry apoptosis assay in MOLM-13", "design": "key to Excess over BLISS: Excess over Bliss = C−[(A+B)−(A*B)], % apoptotic cells; key to Excess over HSA: excess = combination minus HSA/Bliss expected, in % apoptotic cells", "conditions": "for Loewe Excess: MOLM-13, 48 hour treatment, ABT-199 nM: r7 1000, r8 500, r9 100, r10 20, r11 5, r12 1, r13 0.2, r14 0.04, r15 0; for Excess over BLISS / Excess over HSA: ABT-199 0 nM, r7 Mismatch 50 μM, r8 Mismatch 25 μM, r9 Non-complimentary 50 μM, r10 Non-complimentary 25 μM"}, "MOLM-13 cells [2]": {"system": "MOLM-13 cells", "assay": "Annexin V / Propidium Iodide flow cytometry apoptosis assay in MOLM-13", "design": "key to Excess over HSA / Excess over BLISS: excess = combination minus HSA/Bliss expected, in % apoptotic cells", "conditions": "for Loewe Excess: ABT-199 nM: r7 1000, r8 500, r9 100, r10 20, r11 5, r12 1, r13 0.2, r14 0.04, r15 0; for Excess over HSA: MOLM-13, 96 hours, ABT-199 0 nM, r7 Mismatch 50 μM, r8 Mismatch 25 μM, r9 Non-complimentary 50 μM, r10 Non-complimentary 25 μM", "procedure": "(§1) AML tumor cells KG-1 (ATCC #CCL-246) and MOLM-13 (DSMZ #ACC554) were plated at a density of ˜20,000 cells per well on 96-well polystyrene U-bottom tissue culture plates (Corning catalog #353777) in RPMI-1640 (ThermoFisher catalog #11875-085) supplemented with 10% fetal bovine serum (ThermoFisher catalog #16140-089) and 1% penicillin/streptomycin antibiotic cocktail (ThermoFisher catalog 15140-122) and grown in a 37° C. incubator under humidified 5% CO2 atmosphere.\n(§2) At 48 and 96 hours, cells were measured for healthy, early apoptotic and apoptotic populations with an Annexin V (interior cell membrane stain) plus Propidium Iodide (PI, DNA binding dye) flow cytometry assay kit (BioLegend catalog 640914). Annexin V detects the externalization of phosphatidylserine in apoptotic cells using recombinant annexin V conjugated to green-fluorescent FITC dye and dead cells using Propidium iodide (PI). Propidium iodide stains necrotic cells with red fluorescence. After treatment with both probes, early apoptotic cells show green fluorescence, apoptotic (dead) cells show red and green fluorescence, and live cells show little or no fluorescence. […] Cells were stained for 30 minutes at 4° C. in the dark, followed by 3× washes with PBS and suspension in FACs Stain Buffer (BD catalog 554657) prior to interrogation on a BD FACs Canto flow cytometer for forward scatter, side scatter, FITC, and PE channels. […] The percentage of apoptotic cells (double labeled) was used to calculate combination effects using both the Highest Single Agent (HSA) and Bliss additivity models (J Tang et al. Frontiers in Pharmacology. 2015; 6 (181)).\n(§3) Using the HSA model, the cytotoxic effect of the combined condition (“C”) was compared to the effect generated by each of the single agent controls (“A” or “B”) for the respective dose in the combination: Excess over HSA=C−A (if A>B) or C−B (if A<B)\n(§4) The Bliss model performs a similar comparison, but instead of the highest effect of single agent, the Bliss model subtracts from the combination a value equal to the sum of each single agent minus their product: Excess over Bliss=C−[(A+B)−(A*B)]\nTreated cells were analyzed by Flow cytometry for Annexin V and Propidium Iodide staining as described previously. Events gated in the apoptotic population (Annexin V+/Propidium Iodide+) were used to determine synergy scores for the combination matrix. Combination data analysis was generated by the Horizon Chalice™ Analyzer Software (Horizon Discovery Group, Cambridge, UK). […] Mismatch and non-complimentary controls were not utilized in this experiment.\nCombination conditions undergo isobolar analysis to generate a combination index and graphically represent the behavior of a combination with synergistic pairs falling below the isobologram and antagonistic falling above it (additive combinations would be expected to fall on the line). The Horizon Chalice™ Analyzer Software additionally provides a synergy score, with values greater than 1 indicating synergy."}, "KG-1 cells": {"system": "KG-1 cells", "assay": "Annexin V / Propidium Iodide flow cytometry apoptosis assay in KG-1", "design": "key to Excess over HSA / Excess over BLISS: excess in % apoptotic (Annexin V/PI double-labeled) cells over HSA/Bliss", "conditions": "ABT-199 0 nM, r7 Mismatch 50 μM, r8 Mismatch 25 μM, r9 Non-complimentary 50 μM, r10 Non-complimentary 25 μM", "procedure": "as §1, §2, §3, §4"}}, "note": "{PalmAG} = palmitoyl amide conjugated through an aminoglycerol linker to the 5'-thiophosphate; {PalmN} = palmitoyl amide conjugated through the terminal 3'-amino group; [NPS] = N3'→P5' thiophosphoramidate internucleoside linkage; {NH2} = amino group"}
{"substance": "Mismatch: control oligonucleotide 5′-R-TAGGTGTAAGCAA-NH2-3′ (SEQ ID NO: 2), palmitoyl amide conjugated NPS-linked oligonucleotide (all [NPS], 5' {PalmAG}, 3' {NH2}, sugars by position and methylation of C not given here)", "values": [{"measurement": "Loewe Excess", "setting": "MOLM-13 cells [1]; Mismatch 10 μM", "result": "−1"}, {"measurement": "Excess over BLISS", "setting": "MOLM-13 cells [1]; MOLM-13, 48 hours", "result": 0}, {"measurement": "Excess over HSA", "setting": "MOLM-13 cells [1]; MOLM-13, 48 hours", "result": 0}, {"measurement": "Excess over BLISS", "setting": "MOLM-13 cells [1]; MOLM-13, 96 hours", "result": 0}, {"measurement": "Loewe Excess", "setting": "MOLM-13 cells [2]; MOLM-13, 48 hour treatment, Mismatch 1 μM", "result": 4}, {"measurement": "Loewe Excess", "setting": "MOLM-13 cells [2]; MOLM-13, 48 hour treatment, Mismatch 5 μM", "result": 2}, {"measurement": "Loewe Excess", "setting": "MOLM-13 cells [2]; MOLM-13, 48 hour treatment, Mismatch 25 μM", "result": 1}, {"measurement": "Loewe Excess", "setting": "MOLM-13 cells [2]; MOLM-13, 48 hour treatment, Mismatch 50 μM", "result": 0}, {"measurement": "Loewe Excess", "setting": "MOLM-13 cells [2]; MOLM-13, 48 hour treatment, Mismatch 75 μM", "result": 0}, {"measurement": "Loewe Excess", "setting": "MOLM-13 cells [2]; MOLM-13, 96 hour treatment, Mismatch 1 μM", "result": 1}, {"measurement": "Loewe Excess", "setting": "MOLM-13 cells [2]; MOLM-13, 96 hour treatment, Mismatch 5 μM", "result": 0}, {"measurement": "Loewe Excess", "setting": "MOLM-13 cells [2]; MOLM-13, 96 hour treatment, Mismatch 10 μM", "result": "−1"}, {"measurement": "Loewe Excess", "setting": "MOLM-13 cells [2]; MOLM-13, 96 hour treatment, Mismatch 25 μM", "result": "−2"}, {"measurement": "Loewe Excess", "setting": "MOLM-13 cells [2]; MOLM-13, 96 hour treatment, Mismatch 50 μM", "result": "−1"}, {"measurement": "Loewe Excess", "setting": "MOLM-13 cells [2]; MOLM-13, 96 hour treatment, Mismatch 75 μM", "result": 1}, {"measurement": "Excess over HSA", "setting": "MOLM-13 cells [2]", "result": 0}, {"measurement": "Excess over BLISS", "setting": "KG-1 cells; KG-1, 48 hours", "result": 0}, {"measurement": "Excess over HSA", "setting": "KG-1 cells; KG-1, 48 hours", "result": 0}, {"measurement": "Excess over BLISS", "setting": "KG-1 cells; KG-1, 96 hours", "result": 0}, {"measurement": "Excess over HSA", "setting": "KG-1 cells; KG-1, 96 hours", "result": 0}]}
{"substance": "Non-complimentary: control oligonucleotide 5′-AACAGATTGGGAT-R-3′ (SEQ ID NO: 3), palmitoyl amide on the terminal 3′ amino group of an NPS oligonucleotide (all [NPS], 3' {PalmN}, sugars by position and methylation of C not given here)", "values": [{"measurement": "Loewe Excess", "setting": "MOLM-13 cells [1]; Non-Complimentary 5 μM", "result": "−1"}, {"measurement": "Loewe Excess", "setting": "MOLM-13 cells [1]; Non-Complimentary 25 μM", "result": "−1"}, {"measurement": "Excess over BLISS", "setting": "MOLM-13 cells [1]; MOLM-13, 48 hours", "result": 0}, {"measurement": "Excess over HSA", "setting": "MOLM-13 cells [1]; MOLM-13, 48 hours", "result": 0}, {"measurement": "Excess over BLISS", "setting": "MOLM-13 cells [1]; MOLM-13, 96 hours", "result": 0}, {"measurement": "Loewe Excess", "setting": "MOLM-13 cells [2]; MOLM-13, 48 hour treatment, Non-Complimentary 1 μM", "result": 6}, {"measurement": "Loewe Excess", "setting": "MOLM-13 cells [2]; MOLM-13, 48 hour treatment, Non-Complimentary 10 μM", "result": "−2"}, {"measurement": "Loewe Excess", "setting": "MOLM-13 cells [2]; MOLM-13, 48 hour treatment, Non-Complimentary 50 μM", "result": "−2"}, {"measurement": "Loewe Excess", "setting": "MOLM-13 cells [2]; MOLM-13, 48 hour treatment, Non-Complimentary 75 μM", "result": 1}, {"measurement": "Loewe Excess", "setting": "MOLM-13 cells [2]; MOLM-13, 96 hour treatment, Non-Complimentary 1 μM", "result": 1}, {"measurement": "Loewe Excess", "setting": "MOLM-13 cells [2]; MOLM-13, 96 hour treatment, Non-Complimentary 5 μM", "result": 0}, {"measurement": "Loewe Excess", "setting": "MOLM-13 cells [2]; MOLM-13, 96 hour treatment, Non-Complimentary 10 μM", "result": "−1"}, {"measurement": "Loewe Excess", "setting": "MOLM-13 cells [2]; MOLM-13, 96 hour treatment, Non-Complimentary 25 μM", "result": "−1"}, {"measurement": "Loewe Excess", "setting": "MOLM-13 cells [2]; MOLM-13, 96 hour treatment, Non-Complimentary 50 μM", "result": "−1"}, {"measurement": "Loewe Excess", "setting": "MOLM-13 cells [2]; MOLM-13, 96 hour treatment, Non-Complimentary 75 μM", "result": 1}, {"measurement": "Excess over HSA", "setting": "MOLM-13 cells [2]", "result": 0}, {"measurement": "Excess over BLISS", "setting": "KG-1 cells; KG-1, 48 hours", "result": 0}, {"measurement": "Excess over HSA", "setting": "KG-1 cells; KG-1, 48 hours", "result": 0}, {"measurement": "Excess over BLISS", "setting": "KG-1 cells; KG-1, 96 hours", "result": 0}, {"measurement": "Excess over HSA", "setting": "KG-1 cells; KG-1, 96 hours", "result": 0}]}
